Test results published in ChEMBL document CHEMBL3880384, “2-Phenylquinoxalines as inhibitors for MPP1” (2006).
The source made the active and inactive calls. No cut-off for these calls is given here.

Molecular target: Kinesin-like protein KIF20B (Homo sapiens) (UniProt Q96Q89)
Assay: Inhibition of MPP1 in human HeLaS3 cells assessed as induction of binucleate phenotype after 18 hrs
Type: cell-based
Settings: HeLa S3

Chain of Kinesin-like protein KIF20B (Homo sapiens) (Q96Q89 whole entry): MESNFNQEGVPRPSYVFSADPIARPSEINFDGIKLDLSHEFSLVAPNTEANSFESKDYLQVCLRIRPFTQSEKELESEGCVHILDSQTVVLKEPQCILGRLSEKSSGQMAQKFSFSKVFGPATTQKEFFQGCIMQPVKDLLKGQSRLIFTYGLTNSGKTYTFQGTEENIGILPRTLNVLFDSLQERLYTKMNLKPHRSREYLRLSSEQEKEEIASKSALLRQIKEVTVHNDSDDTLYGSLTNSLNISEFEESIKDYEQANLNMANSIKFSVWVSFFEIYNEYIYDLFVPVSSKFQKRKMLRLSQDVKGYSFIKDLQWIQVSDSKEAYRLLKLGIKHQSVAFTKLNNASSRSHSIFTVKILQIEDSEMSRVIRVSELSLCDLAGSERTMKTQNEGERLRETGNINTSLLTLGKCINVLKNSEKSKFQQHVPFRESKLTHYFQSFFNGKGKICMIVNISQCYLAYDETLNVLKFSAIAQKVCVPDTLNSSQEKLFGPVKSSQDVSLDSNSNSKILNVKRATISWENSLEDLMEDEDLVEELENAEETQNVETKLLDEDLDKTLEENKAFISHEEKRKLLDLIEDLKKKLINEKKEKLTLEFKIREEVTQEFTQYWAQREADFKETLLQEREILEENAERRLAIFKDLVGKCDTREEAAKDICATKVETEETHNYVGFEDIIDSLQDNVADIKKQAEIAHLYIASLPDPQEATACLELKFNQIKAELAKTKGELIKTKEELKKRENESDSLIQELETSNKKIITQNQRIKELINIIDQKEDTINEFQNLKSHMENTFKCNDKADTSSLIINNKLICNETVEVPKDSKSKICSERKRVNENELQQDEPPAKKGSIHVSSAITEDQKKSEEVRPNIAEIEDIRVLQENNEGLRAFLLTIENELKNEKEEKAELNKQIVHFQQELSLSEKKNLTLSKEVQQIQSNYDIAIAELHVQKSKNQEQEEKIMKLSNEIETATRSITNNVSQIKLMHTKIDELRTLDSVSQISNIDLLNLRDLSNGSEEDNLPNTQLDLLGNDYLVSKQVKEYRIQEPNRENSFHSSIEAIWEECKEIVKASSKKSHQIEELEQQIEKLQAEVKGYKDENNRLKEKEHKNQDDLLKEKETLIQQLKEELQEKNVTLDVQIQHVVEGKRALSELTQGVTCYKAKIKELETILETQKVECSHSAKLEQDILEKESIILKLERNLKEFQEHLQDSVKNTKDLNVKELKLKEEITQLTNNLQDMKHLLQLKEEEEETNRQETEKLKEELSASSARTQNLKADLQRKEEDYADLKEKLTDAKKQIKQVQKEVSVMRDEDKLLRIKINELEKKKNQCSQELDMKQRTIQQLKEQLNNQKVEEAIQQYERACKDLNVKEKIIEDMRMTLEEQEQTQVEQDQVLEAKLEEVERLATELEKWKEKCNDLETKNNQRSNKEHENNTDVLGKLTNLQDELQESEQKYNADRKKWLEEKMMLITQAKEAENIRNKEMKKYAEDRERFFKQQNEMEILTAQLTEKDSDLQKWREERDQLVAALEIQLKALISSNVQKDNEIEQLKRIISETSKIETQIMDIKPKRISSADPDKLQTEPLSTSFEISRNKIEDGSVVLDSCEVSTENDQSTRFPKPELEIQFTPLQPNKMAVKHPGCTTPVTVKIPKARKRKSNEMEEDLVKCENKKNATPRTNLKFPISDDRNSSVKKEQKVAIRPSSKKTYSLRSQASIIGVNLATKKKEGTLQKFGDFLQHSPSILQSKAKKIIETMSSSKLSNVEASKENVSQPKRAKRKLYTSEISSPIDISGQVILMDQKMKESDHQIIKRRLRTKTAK

**Q.** `FC(F)(F)c1cc(Cl)c2ncc(-c3ccc(Cl)c(Cl)c3)nc2c1` was tested. Which inhibition did it give?
**A.** Active
